Assay results from patent US8455510B2.
Read-outs that look alike come from different tables or passages of the source.

Columns and labels:
[1] = MTT cytotoxicity on mouse spleen lymphocytes; assay type: cell-based, BALB/c mice; conditions: BALB/c, MTT assay
Protocol: 3-(4,5-dimethylthylthiazol-2-yl)-2,5-diphenyl tetrazolium bromide (MTT) assay was adopted to measure the effect of the in vitro administered compound on the activity of the spleen lymphocytes of normal mice, and evaluate the cytotoxicity of the compound.
They were dissolved in DMSO before testing to prepare a stock solution, which was diluted to a desired concentration with the medium when use.
100 μl cell suspension of mouse spleen lymphocytes was inoculated on a 96-well plate (4×10^5 per well), and the compound at different concentrations was added therein, including additional solvent control or medium background control, wherein, the total volume of each well was 200 μl. After the 96-well plate was placed in an incubator at 37° C. with 5% CO2 for 48 hours, 20 μl (5 mg/ml) of MTT solution was added 6 to 7 hours before the end of incubation. Then after the incubation was completed, 100 μl of supernatant was removed for each well, and 100 μl of […] was added therein. After the 96-well plate was placed in the incubator for 6 to 7 hours, OD values were determined on an ELISA Reader at the wavelength of 570 nm.

T Cells = assay: Immunosuppressive activity assay: T cells inhibitory activity; assay type: cell-based; conditions: T-cell; Table 10
[2] = system: human osteosarcoma U2SO xenograft; assay: U2SO xenograft on nude mice; conditions: 1-5/3 w; for TV (mm^3) d0: baseline
[3] = system: allogeneic antigen-induced mouse spleen lymphocytes; assay: Mixed lymphocyte culture, 3H-TdR incorporation; assay type: cell-based, C57BL/6 and BALB/C mice; conditions: for inhibition at 0.0001342 µM / inhibition at 0.0003355 µM / inhibition at 0.0008389 µM / inhibition at 0.0020972 µM / inhibition at 0.0052429 µM / inhibition at 0.013107 µM / inhibition at 0.032768 µM / inhibition at 0.0819 µM / inhibition at 0.2048 µM / inhibition at 0.512 µM / inhibition at 1.28 µM / inhibition at 3.2 µM / inhibition at 8 µM / inhibition at 20 µM: Mus musculus, Lymphocyte
Protocol: Preparation of Stimulator Cells: a Cell Suspension of Balb/C Mouse Spleen Lymphocytes was irradiated by cesium 137 at 3000 Rads using a Gamma radiometer (Gammacell 3000) to make the cells lose their proliferation ability. After washed by RPMI-1640 for 2 times, the cell concentration was adjusted to 5×10^6/ml.
Preparation of responder cells: C57BL/6 mouse spleen lymphocytes were used as the responder cells, and the cell concentration was 5×10^6/ml.
Mixed lymphocyte culture: 50 μl cell suspension of C57BL/6 mouse spleen lymphocytes was inoculated on a 96-well plate, and 50 μl cell suspension of BALB/C mouse spleen lymphocytes treated by cesium 137 was added therein, followed by addition of 50 μl compound at different concentrations. The total volume for each well was 200 μl. If the total volume was less than 200 μl, it was supplemented with RMPI-1640 medium. The tests were divided into 3 groups, i.e., BALB/C mouse group, C57BL/6 mouse group and BALB/C and C57BL/6 mice mixed culture group. The test was carried out in triplicate wells for each concentration, and included control wells without the compound, with only the stimulator cells and with only the responder cells. The 96-well plate was incubated in an incubator at 37° C. with 5% CO2 for 3 to 5 days. 8 hours before the end of incubation, 25 μl of ^3H-thymidine (10 μCi/ml) was added in each well. After the incubation was completed, cells were harvested by a cell harvester on a glass fiber film. After addition of a scintillation fluid, the amount of ^3H-TdR incorporated in cell DNA was determined by a Beta cell counter (MicroBeta Trilux, PerkinElmer), and the cell proliferation was represented as a cpm value.

[4] = system: normal mouse spleen T lymphocytes induced by ConA; assay: 3H-TdR incorporation, ConA-induced T lymphocyte proliferation; assay type: cell-based, BALB/c mice; conditions: read-out: IC50, proliferation of T lymphocytes induced by ConA
Protocol: ^3H-thymidine incorporation was adopted to measure the effect of the in vitro administered compound on the proliferation function of the spleen lymphocytes of normal mice induced by a mixed culture of mitogen/allogeneic mouse spleen lymphocytes, and evaluate the in vitro immunosuppressive activity of the compound.
Measurement of the effects of compounds on the proliferation function of mouse spleen lymphocytes induced by mitogen by ^3H-TdR incorporation: 100 μl cell suspension of mouse spleen lymphocytes was inoculated on a 96-well plate (4×10^5 per well), followed by addition of 50 μl of ConA (final concentration: 5 μg/ml), 50 μl of LPS (final concentration: […]) or 50 μl of compound at different concentrations. The total volume of each well was 200 μl. The test was carried out in triplicate wells for each concentration, and included control wells without ConA/LPS or the compound. After the 96-well plate was placed in an incubator at 37° C. with 5% CO2 for 48 hours, 25 μl of ^3H-thymidine (10 μCi/ml) was added in each well 8 hours before the end of incubation. […] The amount of ^3H-TdR incorporated in cell DNA was determined by a Beta cell counter (MicroBeta Trilux, PerkinElmer), and the cell proliferation was represented as a cpm value.

Compound: CO[C@H]1C[C@@H]2CC[C@@H](C)[C@@](O)(O2)C(=O)C(=O)N2CCCC[C@H]2C(=O)O[C@H]([C@H](C)C[C@@H]2CC[C@@H](O)[C@H](OC)C2)CC(=O)[C@H](C)/C=C(\C)[C@@H](O)[C@@H](OC)C(=O)[C@H](C)C[C@H](C)/C=C/C=C/C=C/1C [Rapamycin]
- CC50 at 48 h [1]: 45500 nM
- IC50 (T Cells): 4200 nM
- Body Weight (g) end ([2]; Table 5, oral 2.5 mg/kg): 18.5 g
- Body Weight (g) start ([2]; Table 5, oral 2.5 mg/kg): 19.7 g
- RTV ([2]; Table 5, oral 2.5 mg/kg): 15 ± 5.1
- T/C (%) ([2]; Table 5, oral 2.5 mg/kg): 60.0%
- TV (mm^3) d21 ([2]; Table 5, oral 2.5 mg/kg): 1230 ± 344 mm^3
- TV (mm^3) d0 ([2]; Table 5, oral 2.5 mg/kg): 85 ± 24 mm^3
- Body Weight (g) end ([2]; Table 5, oral 5 mg/kg): 17.5 g
- Body Weight (g) start ([2]; Table 5, oral 5 mg/kg): 19.5 g
- RTV ([2]; Table 5, oral 5 mg/kg): 15 ± 3.4
- T/C (%) ([2]; Table 5, oral 5 mg/kg): 59.0%
- TV (mm^3) d0 ([2]; Table 5, oral 5 mg/kg): 86 ± 20 mm^3
- CPM Mean value ([3]; 0.1342 nM): 4788
- CPM Mean value ([3]; 0.3355 nM): 3157
- CPM Mean value ([3]; 0.8389 nM): 1955
- CPM Mean value ([3]; 2.0972 nM): 1638
- CPM Mean value ([3]; 32.768 nM): 956
- CPM Mean value ([3]; 81.9 nM): 1012
- CPM Mean value ([3]; 204.8 nM): 848
- CPM Mean value ([3]; 512 nM): 1068
- CPM Mean value ([3]; 1280 nM): 967
- CPM Mean value ([3]; 3200 nM): 840
- CPM Mean value ([3]; 8000 nM): 780
- CPM Mean value ([3]; 20000 nM): 362
- inhibition at 0.0001342 µM ([3]; 0.1342 nM): 35%
- inhibition at 0.0003355 µM ([3]; 0.3355 nM): 57%
- inhibition at 0.0008389 µM ([3]; 0.8389 nM): 73%
- inhibition at 0.0020972 µM ([3]; 2.0972 nM): 78%
- inhibition at 0.0052429 µM ([3]; 5.2429 nM): 83%
- inhibition at 0.013107 µM ([3]; 13.107 nM): 83%
- inhibition at 0.032768 µM ([3]; 32.768 nM): 87%
- inhibition at 0.0819 µM ([3]; 81.9 nM): 86%
- inhibition at 0.2048 µM ([3]; 204.8 nM): 88%
- inhibition at 0.512 µM ([3]; 512 nM): 85%
- inhibition at 1.28 µM ([3]; 1280 nM): 87%
- inhibition at 3.2 µM ([3]; 3200 nM): 89%
- inhibition at 8 µM ([3]; 8000 nM): 89%
- inhibition at 20 µM ([3]; 20000 nM): 95%
- IC50 [4]: 196 nM

Compound: CO[C@H]1C[C@@H]2CC[C@@H](C)[C@@](O)(O2)C(=O)C(=O)N2CCCC[C@H]2C(=O)O[C@H]([C@H](C)C[C@@H]2CC[C@@H](OC(=O)OCC(O)CO)[C@H](OC)C2)CC(=O)[C@H](C)/C=C(\C)[C@@H](O)[C@@H](OC)C(=O)[C@H](C)C[C@H](C)/C=C/C=C/C=C/1C (some centres unmarked) [Y31]
- CC50 at 48 h [1]: 36900 nM
- IC50 (T Cells): 50 nM
- Body Weight (g) end ([2]; Table 5, oral 2.5 mg/kg): 20.2 g
- Body Weight (g) start ([2]; Table 5, oral 2.5 mg/kg): 18.5 g
- RTV ([2]; Table 5, oral 2.5 mg/kg): 12 ± 6.7
- T/C (%) ([2]; Table 5, oral 2.5 mg/kg): 49.0%
- TV (mm^3) d21 ([2]; Table 5, oral 2.5 mg/kg): 975 ± 235 mm^3
- TV (mm^3) d0 ([2]; Table 5, oral 2.5 mg/kg): 90 ± 27 mm^3
- Body Weight (g) end ([2]; Table 5, oral 5 mg/kg): 19.5 g
- Body Weight (g) start ([2]; Table 5, oral 5 mg/kg): 17.7 g
- RTV ([2]; Table 5, oral 5 mg/kg): 11 ± 7.2
- T/C (%) ([2]; Table 5, oral 5 mg/kg): 44.0%
- TV (mm^3) d21 ([2]; Table 5, oral 5 mg/kg): 967 ± 234 mm^3
- TV (mm^3) d0 ([2]; Table 5, oral 5 mg/kg): 89 ± 19 mm^3
- CPM Mean value ([3]; 0.1342 nM): 1338
- CPM Mean value ([3]; 0.3355 nM): 1296
- CPM Mean value ([3]; 0.8389 nM): 1202
- CPM Mean value ([3]; 2.0972 nM): 1137
- CPM Mean value ([3]; 5.2429 nM): 1131
- CPM Mean value ([3]; 13.107 nM): 1137
- CPM Mean value ([3]; 32.768 nM): 1189
- CPM Mean value ([3]; 81.9 nM): 1314
- CPM Mean value ([3]; 204.8 nM): 1090
- CPM Mean value ([3]; 512 nM): 1436
- CPM Mean value ([3]; 1280 nM): 1209
- CPM Mean value ([3]; 3200 nM): 1132
- CPM Mean value ([3]; 8000 nM): 1190
- CPM Mean value ([3]; 20000 nM): 815
- inhibition at 0.0001342 µM ([3]; 0.1342 nM): 82%
- inhibition at 0.0003355 µM ([3]; 0.3355 nM): 82%
- inhibition at 0.0008389 µM ([3]; 0.8389 nM): 84%
- inhibition at 0.0020972 µM ([3]; 2.0972 nM): 85%
- inhibition at 0.0052429 µM ([3]; 5.2429 nM): 85%
- inhibition at 0.013107 µM ([3]; 13.107 nM): 85%
- inhibition at 0.032768 µM ([3]; 32.768 nM): 84%
- inhibition at 0.0819 µM ([3]; 81.9 nM): 82%
- inhibition at 0.2048 µM ([3]; 204.8 nM): 85%
- inhibition at 0.512 µM ([3]; 512 nM): 80%
- inhibition at 1.28 µM ([3]; 1280 nM): 84%
- inhibition at 3.2 µM ([3]; 3200 nM): 85%
- inhibition at 8 µM ([3]; 8000 nM): 84%
- inhibition at 20 µM ([3]; 20000 nM): 89%
- IC50 ([4]; ConA 5 μg/ml, 48 hours, 3H-TdR): 331 nM
